Several values for one entry are separate records, joined by “and”; a condition that tells them apart may be missing. Equal values may be shown once. Marks after values point to notes of the source that are not given here.

For the data set, the target named is T1, OATP1B3 (Homo sapiens, UniProt Q9NPD5).
T1 construct: expressed in transfected cells; host or cells: HEK293 (recombinant baculovirus-mediated transduction)
T1 sequence (Q9NPD5 1-702): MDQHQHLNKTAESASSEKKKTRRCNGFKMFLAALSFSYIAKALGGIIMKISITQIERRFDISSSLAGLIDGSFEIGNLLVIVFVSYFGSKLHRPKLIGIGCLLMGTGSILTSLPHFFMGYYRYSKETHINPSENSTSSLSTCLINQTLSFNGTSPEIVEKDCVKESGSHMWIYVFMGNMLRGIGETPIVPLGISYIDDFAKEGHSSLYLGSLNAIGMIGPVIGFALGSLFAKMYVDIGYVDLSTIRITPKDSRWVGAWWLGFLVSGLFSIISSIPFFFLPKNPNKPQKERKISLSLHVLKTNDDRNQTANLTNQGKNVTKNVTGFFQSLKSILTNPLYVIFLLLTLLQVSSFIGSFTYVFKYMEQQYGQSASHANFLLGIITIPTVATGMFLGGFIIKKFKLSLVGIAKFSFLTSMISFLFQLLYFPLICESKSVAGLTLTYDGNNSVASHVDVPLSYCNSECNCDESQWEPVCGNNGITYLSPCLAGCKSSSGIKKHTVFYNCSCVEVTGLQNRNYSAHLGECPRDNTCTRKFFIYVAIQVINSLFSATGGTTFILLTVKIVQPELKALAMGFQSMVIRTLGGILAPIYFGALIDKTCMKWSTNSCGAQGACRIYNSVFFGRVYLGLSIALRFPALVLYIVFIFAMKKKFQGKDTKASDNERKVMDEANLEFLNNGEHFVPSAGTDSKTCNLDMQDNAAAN
Description: OATP1B3 inhibition, rosuvastatin uptake into transporter-expressing HEK293 cells. As to conditions: for IC50: IC50 (95% CI), μM OATP1B3, 2.5 μM rosuvastatin, 2 min, 30 min preincubation; for Calculated R-value OATP1B3: R = 1 + (I in,max,u/IC50), FDA cut-off ≥ 1.1. In kind it is cell-based. On the procedure: The human transporters OATP1B1, OATP1B3, OATP2B1, and OAT1‐OAT4 and a negative control protein (enhanced yellow fluorescent protein, eYFP) were transiently expressed in human embryonic kidney 293 (HEK293) cells by recombinant baculovirus‐mediated transduction. Baculoviruses carrying human genes for the transporters were prepared as reported previously. HEK293 cells were cultured in DMEM containing 10% fetal bovine serum at 37°C and 5% CO2 and passaged two to three times per week. For the transport studies, 0.05 × 10^6 cells for 48‐well plates (OATPs) or 0.06 × 10^6 cells for 24‐well plates (OATs) were seeded onto cell‐culture treated well plates coated with poly‐D‐lysine. After 1 day, cells were transduced to produce recombinant proteins by changing media to DMEM containing 30 μL (48‐well plates) or 60 μL (24‐well plates) of recombinant baculovirus and 3 mM (OATs) or 5 mM (OATPs) sodium butyrate in a total media volume of 500 μL. The cells were cultured for a further 2 days before the transport assays.
For the transport studies, media were removed and cells were washed once with warm transport uptake buffer (TP‐buffer—pH 7.4 HBSS with 25 mM HEPES and 4 mM sodium bicarbonate). Each experiment included triplicate (OATP) or duplicate (OAT) samples for every test condition. The uptake was started by removing liquid from wells and applying warm TP‐buffer (200 μL for 24‐well plates or 125 μL for 48‐well plates) containing a test compound to cells. Transport assays were terminated after a pre‐specified incubation time (reported in figure legends) by removing substrate solution and washing cells three times with cold TP‐buffer (300 μL for 48‐well plates and 400 μL for 24‐well plates). For the liquid chromatography mass spectrometry (LC–MS) analysis, compounds were extracted from cells with 125 μL (48‐well plates) or 250 μL (24‐well plates) of an ultrapure‐water solution containing 75% methanol and 0.1% formic acid, shaking at 250 RPM for 30 min. […] Samples were transferred to well plates, centrifuged at 3000 g for 30 min, and transferred to a new well plate for the analysis.
In the OATP inhibition assays, inhibitors in warm TP‐buffer were directly applied to cells after media removal, followed by a 30‐min preincubation step in the presence of inhibitors. […] OAT1 and OAT3 cells were lysed with 200 μL of 1 M sodium hydroxide for 10 min, and 150 μL of these samples were transferred to a black well plate for fluorescein quantification. […]
For the inhibition data analysis, the average of measured concentrations in the control cells was subtracted from the average of measured concentrations in transporter‐expressing cells for each inhibitor concentration and then normalized to the vehicle sample that represents 100% transport activity. […]

For orientation: IC50 means the concentration that gives 50% inhibition. For the compound `Cc1onc(-c2c(Cl)cccc2Cl)c1C(=O)N[C@@H]1C(=O)N2[C@@H]1SC(C)(C)[C@@H]2C(=O)O` [Dicloxacillin], the concentration for half-maximal inhibition (IC50) was 6.7 µM and 6.68 µM; the “Calculated R-value OATP1B3” value was 1.8 ^a.

`Cc1onc(-c2c(F)cccc2Cl)c1C(=O)N[C@@H]1C(=O)N2[C@@H]1SC(C)(C)[C@@H]2C(=O)O` [Flucloxacillin]: the IC50 was determined as 21 µM and the “Calculated R-value OATP1B3” value is 1.7 ^a.

The values are drawn from publication PMC12865225 (Clinical and Translational Science, 2026).
